Source: patent publication US20230293483A1, “COMPOSITION FOR PREVENTING OR TREATING LIVER DISEASE, COMPRISING ICARITIN AND QUERCETIN” (INDUSTRY-ACADEMIC COORPERATION FOUNDATION DAEGU HAANY …, priority 2020, published 2023)

Tested on: HepG2 cells
Test: Cell viability test (MTT assay) against oxidative stress induced by AA+iron
Type: cell-based, human
Conditions: for hepatocellular protective effect (cell viability): AA+iron in HepG2, compared with genistein and luteolin at the same concentration, FIG. 1
Description: HepG2 cell, a human-derived liver parenchymal cell line, was purchased from the American Type Culture Collection (ATCC, Rockville, MD, USA). Dulbecco's modified Eagle's medium (DMEM; Gibco) mixed with heat-treated 10% fetal bovine serum (FBS; Gibco), 100 units/ml of penicillin, and 100 μg/mL of streptomycin (Gibco) was used to culture HepG2 cells in an incubator maintained at 37° C. and 5% CO2 conditions. Cells were cultured in a 100 mm dish to a confluence of 80% or more, and subcultured twice a week at a ratio of 1:4. After serum-starvation for 12 hours, drugs were treated at different concentrations, and 1 hour later, 10 μM of AA was treated for 12 hours, and then treated with 5 μM of iron, and further cultured for 5 hours.
Cell viability was measured by MTT assay. HepG2 cells were dispensed in 0.5 mL/well at a concentration of 2×10^5 cells/well in a 24-well plate, and then cultured for 24 hours. After serum was depleted for 12 hours, the drug was treated for 1 hour, and then 10 μM of AA was treated for 12 hours, and 5 μM of iron was added and cultured for 5 hours. Herein, 300 μL of MTT 0.5 mg/mL per well was treated and reacted at 37° C. for 2 hours. After carefully removing the medium and dissolving formazan crystals produced by reducing MTT with dimethylsulfoxide (DMSO), absorbance was measured at 570 nm using a microplate measuring instrument (Tecan Infinite M200 PRO, USA).
In addition, in order to identify the cell viability according to the mixed use of icaritin and quercetin according to the results of FIG. 1, HepG2 cells were dispensed in 2×10^5 cells/well into a 24-well plate and cultured for 24 hours. After treatment for 1 hour at the concentrations shown in Table 1 below, 10 μM of AA was treated for 12 hours, and 5 μM of iron was added and cultured for 5 hours. […] The absorbance was measured at 570 nm using a microplate measuring instrument (Tecan Infinite M200 PRO, USA).

Compound | hepatocellular protective effect (cell viability) | cell viability (HepG2, drug 1 h, then 10 μM AA 12 h + 5 μM iron 5 h, MTT, FIG. 2)
COc1ccc(-c2oc3c(CC=C(C)C)c(O)cc(O)c3c(=O)c2O)cc1 [Comparative Example 1, icaritin] | most significant hepatocellular protective effects | –
O=c1c(O)c(-c2ccc(O)c(O)c2)oc2cc(O)cc(O)c12 [Comparative Example 2, quercetin] | most significant hepatocellular protective effects | about 47.9±0.4%
